Data: patent US20210069333A1, “CANNABINOIDS IN COMBINATION WITH NON-CANNABINOID CHEMOTHERAPEUTIC AGENTS” (GW Pharma Limited, priority 2008, published 2021)

Assays:
[1] = test system: human U87 MG astrocytoma cells; assay: Cell viability of human U87 MG astrocytoma cells in culture; type: cell-based; settings: for IC50: Homo sapiens, U-87 MG, read-out: IC50 μM (pure cannabinoids); for reduction of cell viability in combination with THC vs agent alone: U87 MG, combined with THC, FIGS. 4 and 5
Protocol: Tetrahydrocannabinol (THC) and cannabidiol (CBD) in the form of cannabis plant extracts were dissolved in ethanol to a concentration of 100 mM this was stored at −20° C. until required.
Before use the cannabis plant extracts were further diluted to the desired concentration, ensuring that the concentration of ethanol was below 0.001%.
U87 human glioma cells were used throughout this experiment. The cells were maintained at 37° C. in a humidified atmosphere with 5% CO2 and 95% air.
Cells were cultured in a 75 cm^2 culture flask in Dulbecco's Modified Eagle Medium (DMEM), which had been supplemented with 4 mM L-glutamine, 100 units/ml penicillin, […], 1% sodium pyruvate, 1% non-essential amino acids and 10% heat-inactivated fetal bovine serum.
The viability of the human U87 MG astrocytoma cells were examined at various cannabinoid concentrations. The THC and CBD extracts were compared against pure THC and CBD.
The methods used were as described in Example 1 above.
The action of THC, CBD, and a 1:1 ratio mix of THC and CBD were studied at different concentrations on two cell lines: U87MG and T98G.
Cell viability assays were performed as described in Example 1 above.

[2] = test system: Human U87 MG astrocytoma cells xenografted to nude mice; assay: U87 MG astrocytoma xenograft in nude mice, tumour volume; type: in vivo; settings: 15 mg/kg per day, injected peritumourally
Protocol: Human U87 MG astrocytoma cells were xenografted to nude mice and the test compounds were injected peritumourally at a concentration of 15 mg/kg per day.

[3] = test system: U87MG cells; assay: Induced cell death in U87MG cells with ATG1 silencing or pan-caspase inhibitor; settings: cell death induced by the THC:CBD combination, FIGS. 3b and 3c

Row | Compound | IC50 [1] [µM] | reduction of cell viability in combination with THC vs agent alone [1] | other results
1 | CCCCCc1cc(O)c2c(c1)OC(C)(C)[C@@H]1CCC(C)=C[C@@H]21 [THC, tetrahydrocannabinol] | 0.37 | – | Tumour volume relative to zero time following 15 days of treatment [2]: 5.1 ± 0.4
2 | CC/C(=C(\c1ccccc1)c1ccc(OCCN(C)C)cc1)c1ccccc1 [tamoxifen] | – | more efficient at reducing cell viability | –
3 | Z-VAD | – | – | effect on induced cell death [3]: prevent induced cell death
4 | N.N.[Cl][Pt][Cl] [cisplatin] | – | more efficient at reducing cell viability | –
5 | C=C(C)[C@@H]1CCC(C)=C[C@H]1c1c(O)cc(CCCCC)cc1O [CBD, cannabidiol] | 0.47 | – | –
